The source of these data is patent publication US20250213586A1, “STAT6 INHIBITORS AND USES THEREOF” (Kymera Therapeutics, Inc., priority 2024, published 2025).

Assay [1] concerns the target T1, STAT6 (Homo sapiens, UniProt P42226).
T1 sequence (P42226 1-847): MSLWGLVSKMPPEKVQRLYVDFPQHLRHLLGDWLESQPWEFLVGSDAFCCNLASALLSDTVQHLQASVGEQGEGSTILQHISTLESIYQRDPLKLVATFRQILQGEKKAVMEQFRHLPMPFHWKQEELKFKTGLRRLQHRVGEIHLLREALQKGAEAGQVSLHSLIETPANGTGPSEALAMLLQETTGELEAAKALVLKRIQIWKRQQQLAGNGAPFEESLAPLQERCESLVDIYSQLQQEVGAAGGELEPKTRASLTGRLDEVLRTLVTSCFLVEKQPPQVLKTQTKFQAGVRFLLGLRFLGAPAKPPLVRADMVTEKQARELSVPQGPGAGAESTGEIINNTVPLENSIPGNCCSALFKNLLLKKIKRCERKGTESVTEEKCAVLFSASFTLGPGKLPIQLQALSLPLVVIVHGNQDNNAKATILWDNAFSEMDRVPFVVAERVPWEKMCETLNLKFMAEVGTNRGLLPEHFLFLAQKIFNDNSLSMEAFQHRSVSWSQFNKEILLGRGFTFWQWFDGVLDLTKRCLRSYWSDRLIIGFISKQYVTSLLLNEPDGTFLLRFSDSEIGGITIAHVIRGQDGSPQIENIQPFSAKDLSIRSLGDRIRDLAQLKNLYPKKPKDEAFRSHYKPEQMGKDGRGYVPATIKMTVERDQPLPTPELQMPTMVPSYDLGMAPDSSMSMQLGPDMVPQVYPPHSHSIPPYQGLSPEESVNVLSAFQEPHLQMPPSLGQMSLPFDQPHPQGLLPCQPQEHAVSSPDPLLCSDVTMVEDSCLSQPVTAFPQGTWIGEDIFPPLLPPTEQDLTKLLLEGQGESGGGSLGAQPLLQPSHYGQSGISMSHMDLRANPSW
The experiment in a line: Phosphorylated STAT6 (pSTAT6) flow cytometry assay in human PBMC, IL-4 stimulated. The note with it: 1 hour compound, 1 ng/ml IL-4 15 minutes, pSTAT6 in CD19+ B cells, read-out: STAT6 IL4 pSTAT6 assay in PBMC: Average IC50. The class given is cell-based. The arrangement: endogenous in cells; host or cells: human PBMC (CD19+ B cells), IL-4 stimulated. On the procedure: Example 2. Phosphorylated STAT6 (pSTAT6) Flow Cytometry Assay in Human PBMC
Phosphorylation of STAT6 in human PBMC was quantitatively measured using flow cytometry technology. Human PBMC were seeded in 96-well plates with a density of 0.3 to 0.5 million cells per well in 100 μl fresh media. Compounds were then added to the assay plates with a final top concentration of up to […] in a 1:3 dilution series with total of 9 doses. The assay plates were incubated for 1 hour at 37° C. under 5% CO2. The cells were then stimulated with 1 ng/ml of IL-4 (R&D Systems, Cat #6507-IL) for 15 minutes, followed by fixation for 30 minutes at 4° C. Cells were spun down at 350 g for 5 minutes. The supernatant was removed and cells were washed once with FACS buffer. Cells were permeabilized with 90% MeOH/H2O for 30 minutes at 4° C., followed by one wash with FACS buffer. Non-specific binding were blocked with human Fc for 1 hour at 4° C., followed by one wash with FACS buffer. AF488 conjugated pSTAT6 antibody (BD Biosciences, Cat #612600, 1:100 dilution) and PE conjugated CD19 antibody (BD Biosciences, Cat #341103, 1:50 dilution) diluted in 100 μl FACS buffer was added to each well with overnight incubation at 4° C. Cells were then washed once with FACS buffer and resuspended in 200 μl of FACS buffer for flow cytometry to quantify pSTAT6 in CD19+ B cells. The data was analyzed by GraphPad Prism and the dose dependent pSTAT6 inhibition was fit using the four-parameter inhibitor vs. response nonlinear regression.

Assay [2] deals with T2, biotinylated truncated STAT6 (123-632)-avi (Homo sapiens, UniProt P42226).
T2 sequence (P42226 123-632 limits assumed): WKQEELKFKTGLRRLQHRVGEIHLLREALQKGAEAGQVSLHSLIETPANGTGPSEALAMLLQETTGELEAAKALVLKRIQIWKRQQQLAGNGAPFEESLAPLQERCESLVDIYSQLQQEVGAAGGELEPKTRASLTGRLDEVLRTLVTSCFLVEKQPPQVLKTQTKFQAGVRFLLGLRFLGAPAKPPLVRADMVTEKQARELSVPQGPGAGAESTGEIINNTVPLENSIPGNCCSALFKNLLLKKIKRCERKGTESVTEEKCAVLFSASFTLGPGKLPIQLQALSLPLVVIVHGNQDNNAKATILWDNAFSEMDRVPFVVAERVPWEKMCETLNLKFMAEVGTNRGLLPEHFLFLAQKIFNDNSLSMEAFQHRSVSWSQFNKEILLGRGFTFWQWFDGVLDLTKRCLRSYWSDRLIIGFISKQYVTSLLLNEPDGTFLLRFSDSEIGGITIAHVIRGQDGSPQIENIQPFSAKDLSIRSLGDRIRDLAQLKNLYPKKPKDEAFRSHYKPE
Description: biochemical.

Assay [3] addresses T1, STAT6. Description: Phosphorylated STAT6 (pSTAT6) flow cytometry assay in human A549 cells. The format is cell-based. The arrangement: endogenous in cells. The note with it: read-out: STAT6 IL4 pSTAT6 assay in A549 cells: Average IC50. In general terms: Flow cytometry measures light scatter and fluorescence of single cells or particles in a stream.
Description: Example 3. Phosphorylated STAT6 (pSTAT6) Flow Cytometry Assay in Human A549 Cells
Phosphorylation of STAT6 in human A549 cells was quantitatively measured using flow cytometry technology.

SMILES strings stand for the structures. Bounds are passed on as bounds.

In the case of `CN(CC1CCN(c2ccc(-n3ccccc3=O)cc2F)CC1)C(=O)c1ccc(CO)cc1-c1ccsc1` [Compound I-164], the 50% inhibitory concentration (IC50) at STAT6 [1] was over 100 µM; in assay [2] it was 1 to 10 µM.

Take `O=C(CCn1ccnn1)N1CCC=C(c2ccc(-n3ccccc3=O)cc2)C1` [Compound I-1625]: the IC50 in assay [2] lay in the range of 1 to 10 µM.

Turning to `COC(=O)COc1cc(C2=CCCN(C(=O)CCn3ccnn3)C2)ccc1C(=O)N(C)C` [Compound I-250], the IC50 on STAT6 [1] is over 100 µM; in assay [2], 10 to 100 µM.

In assay [2], `COc1ccccc1-c1cc(-n2ccccc2=O)cc(F)c1N1CCC(CN(C)C(=O)c2ccc(CO)cc2)CC1` [Compound I-1296] returned an IC50 of 10 to 100 µM.

Take `COc1cc(C(=O)N(C)C)ccc1C1=CCCN(C(=O)CCn2ccnn2)C1` [Compound I-260]: the IC50 was over 100 µM at STAT6 [1] and 1 to 10 µM in assay [2].

For the compound `O=C(CCn1ccnn1)N1CCC[C@H](c2ccc(-n3ccccc3=O)c(F)c2)C1` (single isomer, unassigned) [Compound I-1294], the IC50 in assay [2] lay in the range of 10 to 100 µM.

In assay [2], `O=C(CCn1ccnn1)N1CCC[C@@H](c2ccc(-n3ccccc3=O)c(F)c2)C1` (single isomer, unassigned) [Compound I-1293] came in with a half-maximal inhibitory concentration (IC50) of 10 to 100 µM.

The compound `CCc1ccc(-c2cc(C(=O)N3Cc4cnn(CC)c4C3)cc3cc(-c4cc(C(=O)O)ccc4C)n(CC4CC4)c23)c(C)n1` [Compound I-1246] registered an IC50 in assay [2] of 1 to 10 µM.

For `CN(C)C(=O)c1cc2cc(C3CCN(C(=O)CCn4ccnn4)C3)ccc2o1` (stereo not drawn) [Compound I-303], the IC50 on STAT6 [1] was over 100 µM; in assay [2], 10 to 100 µM.

On to `Cc1cscc1-c1cc(CO)ccc1C(=O)N(C)CC1CCN(c2ccc(-n3ccccc3=O)cc2F)CC1` [Compound I-131], for which the IC50 at STAT6 [1] was over 100 µM; in assay [2], 10 to 100 µM.

Take `COc1ccccc1-c1cc(-c2cccc(C(=O)N(C)C)c2)c(F)c2[nH]c(C(=O)N(C)C)cc12` [Compound I-1583]: the IC50 in assay [2] fell in the range of 1 to 10 µM.

As to `CN(C)C(=O)c1ccc(N2CCC(CN(C)C(=O)c3ccc(CO)cc3)CC2)c(F)c1` [Compound I-238], the half-inhibitory concentration (IC50) was over 100 µM on STAT6 [1] and 10 to 100 µM in assay [2].

As for `CN(C)C(=O)c1cc2cc(NC(=O)CCn3ccnn3)ccc2o1` [Compound I-262], the half-maximal inhibitory concentration (IC50) at STAT6 [1] is over 100 µM; in assay [2] it was 10 to 100 µM.

Consider `CN(C)C(=O)c1ccc(C2=CCCN(C(=O)CCn3ccnn3)C2)c(O)c1` [Compound I-253], for which the IC50 on STAT6 [1] is over 100 µM; in assay [2], 1 to 10 µM.

Regarding `COc1ccccc1-c1cc(Cc2ccccn2)c(F)c(C2=CCCN(C(=O)CCn3ccnn3)C2)c1` [Compound I-1102], the IC50 (in assay [2]; on STAT6 [3]) was 0.1 to 1 µM throughout.

As to `CN(C)C(=O)c1ccc(C2=CCCN(C(=O)CCn3ccnn3)C2)cc1C#N` [Compound I-230], the IC50 (on STAT6 [1]; in assay [2]) was over 100 µM in each case.

For the compound `CN(C)C(=O)c1cnc(-c2ccc(NC(=O)CCn3ccnn3)cc2)[nH]1` [Compound I-1295], the concentration for half-maximal inhibition (IC50) in assay [2] was in the range of 10 to 100 µM.

The compound `CNC(=O)c1ccc2c(c1)nc(-c1cccn1C)n2-c1ccccc1OC(F)F` [Compound I-1272] registered a half-maximal inhibitory concentration (IC50) in assay [2] of 10 to 100 µM.

As to `CN(CC1CCN(c2ccc(-n3ccccc3=O)cc2)CC1)C(=O)c1ccc(CO)cc1` [Compound I-183], the IC50 is over 100 µM on STAT6 [1] and 10 to 100 µM in assay [2].

For `CN(C)C(=O)c1ccc(C2=CCCN(C(=O)CC3Oc4ccccc4NC3=O)C2)c(OC(F)(F)F)c1` (stereo not drawn) [Compound I-1298], the half-inhibitory concentration (IC50) in assay [2] lay in the range of 10 to 100 µM.

Consider `CN1CCN(c2ccc(C3=CCCN(C(=O)CCn4ccnn4)C3)cc2Cl)CC1=O` [Compound I-6], for which the IC50 (at STAT6 [1]; in assay [2]) was 10 to 100 µM each time.

Take `CN(C)C(=O)c1ccc(C2=CCCN(C(=O)CCn3ccnn3)C2)cc1` [Compound I-288]: the results for the IC50 (on STAT6 [1]; in assay [2]) were over 100 µM and 1 to 10 µM, respectively.

Regarding `Cn1cccc(-c2ccc([C@H]3CCCN(C(=O)CCn4ccnn4)C3)cc2F)c1=O` (single isomer, unassigned) [Compound I-7], the IC50 on STAT6 [1] is over 100 µM; in assay [2] it was 10 to 100 µM.

On to `Cn1cccc(-c2ccc([C@@H]3CCCN(C(=O)CCn4ccnn4)C3)cc2F)c1=O` (single isomer, unassigned) [Compound I-320], for which the IC50 on STAT6 [1] was over 100 µM; in assay [2], 10 to 100 µM.

As to `CN(C)C(=O)c1cc2ccc(C3CCCCN(C(=O)Nc4cccc(C(N)=O)c4)C3)c(F)c2[nH]1` (stereo not drawn) [Compound I-1325], the IC50 in assay [2] fell in the range of 10 to 100 µM.

As to `CCc1ccc(-c2cc(C(=O)N3Cc4cnn(CC)c4C3)cc3cc(-c4cccc(C(=O)O)c4C)n(CC4CC4)c23)c(C)n1` [Compound I-1240], the IC50 in assay [2] lay within 1 to 10 µM.

Consider `CN(C)C(=O)c1ccc(C2=CCCN(C(=O)CC3CNc4ccccc4O3)C2)c(C#N)c1` (stereo not drawn) [Compound I-223], for which the IC50 on STAT6 [1] is over 100 µM; in assay [2] it was 10 to 100 µM.

`CN(CC1CCN(c2ccc(-n3ccccc3=O)cc2F)CC1)C(=O)c1ccc(OC(F)F)cc1` [Compound I-1273]: the 50% inhibitory concentration (IC50) in assay [2] lay in the range of 10 to 100 µM.

Regarding `CN(C)C(=O)c1ccc(C2=CCCN(C(=O)CCn3ccnn3)C2)cc1C(N)=O` [Compound I-211], the IC50 on STAT6 [1] is over 100 µM; in assay [2] it was 10 to 100 µM.

As to `CN(C)C(=O)c1ccc2ccc(C3=CCCN(C(=O)CCn4ccnn4)C3)cc2c1` [Compound I-242], the IC50 is over 100 µM at STAT6 [1] and 10 to 100 µM in assay [2].

Turning to `CN(C)C(=O)c1cc2cc(NC(=O)CCCn3ccnn3)ccc2o1` [Compound I-258], the IC50 on STAT6 [1] is over 100 µM; in assay [2] it was 10 to 100 µM.

`CN(C)C(=O)c1cc2ccc(-c3cnc(CC(=O)Nc4cccc(C(N)=O)c4)s3)c(F)c2[nH]1` [Compound I-1323] came in with an IC50 in assay [2] of 0.1 to 1 µM.

As for `CN(C)C(=O)c1ccc(C2=CCCN(C(=O)CCn3ccnn3)C2)cc1O` [Compound I-218], the IC50 on STAT6 [1] was over 100 µM; in assay [2], 10 to 100 µM.

For `CN(CC1CCN(c2ccc(-n3ccccc3=O)cc2F)CC1)C(Cc1cccnn1)c1ccc(CO)cc1` (stereo not drawn) [Compound I-121], the IC50 (on STAT6 [1]; in assay [2]) was over 100 µM throughout.

`CN(C)C(=O)c1cc2c([nH]1)CN(C1CCCN(C(=O)CCn3ccnn3)C1)CC2` (stereo not drawn) [Compound I-1297] returned an IC50 in assay [2] of 10 to 100 µM.

On to `CNC(=O)c1ccc2c(c1)nc(-c1nc3ccc(F)cc3[nH]1)n2Cc1ccc(CN2CCOCC2)o1` [Compound I-1271], for which the IC50 in assay [2] was 10 to 100 µM.

One may read the IC50 as the concentration that gives 50% inhibition.
